Consider three molecules from patent publication US20260317367A1, “SALTS INCLUDING CRYSTALLINE SALTS OF 25-HYDROXY-CHOLEST-5-EN-3-SULFATE AND METHODS FOR PREPARING SAME” (Durect Corporation, priority 2022, published 2026).

Broadly, the solubility is the concentration that dissolves in the medium under given conditions.

Common to all, as to type: physicochemical
Series [1] is described as follows: Solubility of 25HC3S salts after one day at room temperature (HPLC, as free acid). The conditions noted are these: for Solubility in FaSSGF: Fasted State Simulated Gastric Fluid, pH 1.6, room temperature. The method, then:
These fluids were prepared per the instruction listed by Biorelevant (Biorelevant.com). Each buffer concentrate was diluted with water and mixed well. FaSSIF, FeSSIF, FaSSGF powder was added to each buffer and mixed to completely dissolve the powder. Buffers were stored at room temperature and used within 48 hours of preparation.
(§1) 25HC3S salts were weighed in 8 mL or 4 mL glass vials with Teflon coated screw caps. Aliquots of each solvent were added to each sample and vortexed for about one minute until excess solid remained. Samples were placed on shaker at room temperature with 210 motion per minute shaking.
(§2) After one day, samples were pulled and checked if excess solid was present. About 1.5 mL aliquot of each sample was centrifuged at 12000 rpm for 12 to 15 minutes. […] Aliquots of the top clear solution of each centrifuged sample in MeOH, EtOH, IPA and ACN were diluted with diluent (water:MeOH 95:5) and assayed by HPLC. Samples of the salts in aqueous media were assayed by HPLC without dilution.
All solubility sample solutions of 25HC3S salts were determined using HPLC. A linear standard curve was constructed using standards with concentration between 11 μg/mL to 1.5 mg/mL as free acid forcing the curve to origin. Solubilities are reported as mg/mL free acid 25HC3S. Detection limit (LOD) of the HPLC method was calculated as 0.0007 mg/mL.

The nature of series [2]: Final pH of the solubility sample solutions in aqueous media. The note with it: for pH of the solubility sample, 0.9% Sodium Chloride: 0.9% sodium chloride (blank 5.8); for pH of the solubility sample, 5% Dextrose: 5% dextrose (blank 4.7); for pH of the solubility sample, FaSSGF: FaSSGF (blank 1.5, 1.6); for pH of the solubility sample, FaSSIF: FaSSIF (blank 6.5, 6.5); for pH of the solubility sample, FeSSIF: FeSSIF (blank 4.9, 5.0); for pH of the solubility sample, Water: water (blank 6.3). The method, then: as §1, §2
5.1 Solubility of 25HC3S Salts in Aqueous Media

The nature of series [3]: Differential scanning calorimetry (DSC), thermal decomposition / endothermic transition. The protocol:
Differential scanning calorimetry (DSC) is a thermoanalytical technique where the difference in the amount of heat required to increase the temperature of a sample and reference is measured as a function of temperature. Using this technique, phase transitions of a sample can be measured such as melting point. Decomposition can also be observed by DSC as can dehydration events. In the context of DSC measurements, there is also variability and the term “about” means ±1° C., and such variability is to be understood whether a DSC measurement is prefaced by “about” or not unless specified otherwise. Exemplary methods for collecting DSC data are set forth in Example 21. Thermogravimetric analysis, sometimes referred to as, thermal gravimetric analysis (TGA) is a thermal method of thermal analysis where the mass of a sample is measured as a function of time as the sample temperature changes. For example, when samples disclosed herein are heated and a loss in mass is measured prior to decomposition, this is likely indicative of the loss of water from the sample and may indicate that the sample being heated is a hydrate. Exemplary methods for collecting TGA are set forth in Example 23.
DSC was performed using a Mettler-Toledo DSC3+ differential scanning calorimeter. A tau lag adjustment is performed with indium, tin, and zinc. The temperature and enthalpy are adjusted with octane, phenyl salicylate, indium, tin and zinc. The adjustment is then verified with octane, phenyl salicylate, indium, tin, and zinc. The sample was placed into a hermetically sealed aluminum DSC pan, and the weight was accurately recorded. The pan was then inserted into the DSC cell. A weighed aluminum pan configured as the sample pan was placed on the reference side of the cell. The pan lid was pierced prior to sample analysis. Samples were analyzed from 30° C. to 350° C. or 30° C. to 250° C., both at 10° C./min.
(In DSC, transitions show as peaks or steps in heat flow.)

The nature of series [4]: Appearance (color, clumping, flowability) of stored 25HC3S salts. The method, then:
Approximately 25 mg of each crystalline 25HC3S salt was added to 20 mL glass vials and each powder weight was recorded. Four vials were prepared for each salt and stored at 2-8° C. or 80° C. according to Table B2. The samples were scheduled initially to pull for testing at 3 weeks and 6 weeks' time points.
For those […] salts, the remaining vials stored at 2-8° C. for 3 weeks were allocated for storage at 60° C. for 1 week. Additional stability data was generated according to Table B3.
For appearance, each unopened vial was visually examined for color, clumping, and flowability.

Setting [5] is: room temperature, one day, listed as crystalline 25HC3S zinc.
Setting [6] is: one day, as free acid, LOD 0.0007 mg/mL.
[7] abbreviates: room temperature, one day, listed as crystalline 25HC3S meglumine.
The mark [8] stands for this setting: room temperature, one day, listed as crystalline 25HC3S benzathine.

Structures can show the parent of a compound that is named as a salt.

Consider `CC(CCCC(C)(C)O)C1CCC2C3CC=C4CC(OS(=O)(=O)O)CCC4(C)C3CCC12C` (centres unmarked) [Salt #3], for which, in series [1] (room temperature, one day, as free acid, ND = not detected, detection limit 0.7 μg/mL, 1440 min, listed as 25HC3S zinc), the “Solubility in 5% Dextrose” value is given as 0.013 mg/mL. Further, in series [1] (EtOH, room temperature, one day, listed as crystalline 25HC3S zinc), the “Solubility in ethanol (in words)” value is recorded as “relatively high solubility”. Besides, in series [1] (setting [5]), the “Solubility in FaSSGF (in words)” value is “low solubility” and the “Solubility in saline / 0.9% sodium chloride (in words)” value is listed as “low solubility”. For the same molecule, the “Solubility in FaSSIF” value in series [1] (FaSSIF, room temperature, one day, as free acid, 1440 min, listed as 25HC3S zinc) is 0.133 mg/mL. Moreover, the “Solubility in FaSSGF” value in series [1] (setting [6]) is recorded as “no solubilized drug was detected”. In addition, the “Solubility in FeSSIF” value in series [1] (FeSSIF, room temperature, one day, as free acid, 1440 min, listed as 25HC3S zinc) came to 0.673 mg/mL. Moreover, the “Solubility in ACN” value in series [1] (acetonitrile, room temperature, one day, as free acid, 1440 min, listed as 25HC3S zinc) is listed as 0.1 mg/mL. For the same molecule, the “Solubility in EtOH” value in series [1] (ethanol, room temperature, one day, as free acid, ≥ = did not reach saturation, 1440 min, listed as 25HC3S zinc) is on record as 31.2 mg/mL. Further, the “Solubility in IPA” value in series [1] (isopropyl alcohol, room temperature, one day, as free acid, 1440 min, listed as 25HC3S zinc) is on record as 3.5 mg/mL. Besides, in series [1] (methanol, room temperature, one day, as free acid, ≥ = did not reach saturation, 1440 min, listed as 25HC3S zinc), the “Solubility in MeOH” value is reported as 39.5 mg/mL. Also, in series [1] (water, room temperature, one day, as free acid, ND = not detected, detection limit 0.7 μg/mL, 1440 min, listed as 25HC3S zinc), the “Solubility in H2O” value turned out to be 6 µg/mL. Further, in series [2] (listed as 25HC3S zinc), the “pH of the solubility sample, 0.9% Sodium Chloride” value was determined as 6.4; the “pH of the solubility sample, 5% Dextrose” value is given as 7.1; the “pH of the solubility sample, FaSSIF” value worked out at 6.5; the “pH of the solubility sample, Water” value stood at 7.4. The “pH of solubility sample solution in 0.9% sodium chloride” value in series [2] (0.9% sodium chloride (medium pH 5.8)) came out at 6.4. For the same molecule, in series [2], the “pH of the solubility sample, FaSSGF” value stood at 1.6 and the “pH of the solubility sample, FeSSIF” value is 5.0. Besides, in series [2] (water), the “pH of solubility sample solution in water” value stood at 7.4. Further, the “Decomposition temperature (DSC)” value in series [3] (DSC, 10° C./min, listed as crystalline 25HC3S zinc) is “about 119 °C”. Further, the Appearance entry in series [4] (2-8° C., 3 wk, listed as 25HC3S zinc) was “White, free flowing powder with clumping”. The Appearance entry in series [4] (60° C., 1 wk (after 3 weeks at 2-8° C.), listed as 25HC3S zinc) is listed as “Light brown, melted material stuck to”. Further, the “Appearance after 3 weeks at 80° C.” value in series [4] (80° C.) is reported as “completely burned”. The Appearance entry in series [4] (80° C., 3 wk, listed as 25HC3S zinc) was “Dark brown, melted material stuck to”.
Regarding `CC(CCCC(C)(C)O)C1CCC2C3CC=C4CC(OS(=O)(=O)O)CCC4(C)C3CCC12C` (centres unmarked) [Salt #7], in series [1] (room temperature, one day), the “Solubility in FaSSGF (in words)” value is recorded as “high solubility”. Further, in series [1] (setting [7]), the “Solubility in FaSSGF (in words)” value was “relatively high solubility” and the “Solubility in saline / 0.9% sodium chloride (in words)” value is “low solubility”. Further, the “Solubility in FaSSIF (in words)” value in series [1] (FaSSIF, room temperature, one day) is “high solubility”. Moreover, in series [1] (one day, as free acid, LOD 0.0007 mg/mL, 1440 min), the “Solubility in FaSSGF” value is 0.048 mg/mL. Besides, the “Solubility in FeSSIF (in words)” value in series [1] (FeSSIF, room temperature, one day) was “high solubility”. Also, in series [2] (listed as 25HC3S meglumine), the “pH of the solubility sample, 0.9% Sodium Chloride” value was 7.2; the “pH of the solubility sample, 5% Dextrose” value was 7.2; the “pH of the solubility sample, FaSSIF” value came to 6.5; the “pH of the solubility sample, Water” value came to 8.5. Besides, in series [2], the “pH of the solubility sample, FaSSGF” value came to 1.6 and the “pH of the solubility sample, FeSSIF” value is listed as 5.0. For the same molecule, the Appearance entry in series [4] (2-8° C., 3 wk, listed as 25HC3S meglumine) is given as “White, free flowing powder, no clumping”. Also, the Appearance result in series [4] (60° C., 1 wk (after 3 weeks at 2-8° C.), listed as 25HC3S meglumine) was “White, free flowing powder, no clumping”. Moreover, the “Appearance after 3 weeks at 80° C.” value in series [4] (80° C.) is listed as “completely burned”. In addition, in series [4] (80° C., 3 wk, listed as 25HC3S meglumine), the Appearance entry was “Light brown, partially melted material”.
With `CC(CCCC(C)(C)O)C1CCC2C3CC=C4CC(OS(=O)(=O)O)CCC4(C)C3CCC12C` (centres unmarked) [Salt #9], in series [1] (room temperature, one day, as free acid, LOD 0.0007 mg/mL), the “Solubility in 5% Dextrose” value is recorded as “No solubilized drug was detected”. In addition, in series [1] (setting [8]), the “Solubility in FaSSGF (in words)” value is listed as “low solubility” and the “Solubility in saline / 0.9% sodium chloride (in words)” value was “low solubility”. In addition, the “Solubility in FaSSIF (in words)” value in series [1] (FaSSIF, room temperature, one day, listed as benzathine salt of 25HC3S) is “low solubility”. Further, the “Solubility in FaSSGF” value in series [1] (setting [6]) is “no solubilized drug was detected”. Moreover, the “Solubility in FaSSIF” value in series [1] (Fasted State Simulated Intestinal Fluid, room temperature, one day, as free acid, 1440 min) is on record as 0.004 mg/mL. Further, the “Solubility in FeSSIF (in words)” value in series [1] (FeSSIF, room temperature, one day, listed as benzathine salt of 25HC3S) is “low solubility”. Besides, in series [1] (Fed State Simulated Intestinal Fluid, pH 4.9 to 5.0, room temperature, one day, as free acid, 1440 min), the “Solubility in FeSSIF” value is reported as 0.025 mg/mL. The “Solubility in all aqueous and organic solvents (in words)” value in series [1] (all the aqueous and organic solvents examined) was “lowest solubility”. Further, the solubility at 24 h in series [1] (water, room temperature, one day, as 25HC3S free acid, read-out: Solubility in water) was determined as 6 µg/mL. Moreover, in series [2] (listed as 25HC3S benzathine), the “pH of the solubility sample, 0.9% Sodium Chloride” value was determined as 8.2; the “pH of the solubility sample, 5% Dextrose” value turned out to be 7.1; the “pH of the solubility sample, FaSSIF” value was found to be 6.5; the “pH of the solubility sample, Water” value was determined as 8.6. In series [2], the “pH of the solubility sample, FaSSGF” value stood at 1.6 and the “pH of the solubility sample, FeSSIF” value amounted to 5.0. In series [3] (indicative of thermal degradation or solid-state transformation, listed as benzathine), the “First significant endothermic transition (DSC)” value is approximately 211 °C. In addition, in series [4] (2-8° C., 3 wk, listed as 25HC3S benzathine), the Appearance entry was “White, free flowing powder with some”. The Appearance entry in series [4] (2-8° C., 5 wk) was “White, free flowing powder with clumping”. Also, the Appearance entry in series [4] (80° C., 3 wk, listed as 25HC3S benzathine) is recorded as “White, free flowing powder with clumping”. Besides, the Appearance result in series [4] (80° C., 5 wk) was “White, free flowing powder with clumping”.
